Test results: ChEMBL document CHEMBL3044865, “Herbicidal Activity and Characteristics of Pyraflufen-ethyl for Controlling Broad-leaved Weeds in Cereals” (J Pestic Sci, 2002)
Calls of active or inactive are those of the source. The calls are words filed in the database; no cut-off is given here.

Legend:
Triticum aestivum [1] = experiment: Phytotoxicity in Triticum aestivum (wheat) assessed as injury at 10 g/ha pre emergence application measured after 21 days after treatment; format: organism-based; settings: in vivo, other, 504 h
Triticum aestivum [2] = experiment: Phytotoxicity in Triticum aestivum (wheat) assessed as injury at 10 g/ha post emergence application measured after 21 days after treatment; format: organism-based; settings: in vivo, other, 504 h
Triticum aestivum [3] = experiment: Phytotoxicity in Triticum aestivum (wheat) assessed as injury at 1 g/ha post emergence application measured after 21 days after treatment; format: organism-based; settings: in vivo, other, 504 h
Avena fatua [4] = experiment: Herbicidal activity against Avena fatua assessed as killing at 1 g/ha post emergence application measured after 21 days after treatment; format: functional
Avena fatua [5] = experiment: Herbicidal activity against Avena fatua assessed as killing at 0.3 g/ha post emergence application measured after 21 days after treatment; format: functional, organism-based
Alopecurus myosuroides [6] = experiment: Herbicidal activity against Alopecurus myosuroides assessed as killing at 30 g/ha post emergence application measured after 21 days after treatment; format: functional, organism-based
Alopecurus myosuroides [7] = experiment: Herbicidal activity against Alopecurus myosuroides assessed as killing at 3 g/ha post emergence application measured after 21 days after treatment; format: functional
Viola arvensis [8] = experiment: Ratio of compound ED90 to necoprop-p ED90 for herbicidal activity against Viola arvensis
[9] = target: T1, Protoporphyrinogen oxidase (Medicago truncatula) (UniProt G7L3C0); experiment: Inhibition of Viola arvensis protoporphyrinogen oxidase by post-emergence herbicidal activity assay
T1 sequence (whole entry): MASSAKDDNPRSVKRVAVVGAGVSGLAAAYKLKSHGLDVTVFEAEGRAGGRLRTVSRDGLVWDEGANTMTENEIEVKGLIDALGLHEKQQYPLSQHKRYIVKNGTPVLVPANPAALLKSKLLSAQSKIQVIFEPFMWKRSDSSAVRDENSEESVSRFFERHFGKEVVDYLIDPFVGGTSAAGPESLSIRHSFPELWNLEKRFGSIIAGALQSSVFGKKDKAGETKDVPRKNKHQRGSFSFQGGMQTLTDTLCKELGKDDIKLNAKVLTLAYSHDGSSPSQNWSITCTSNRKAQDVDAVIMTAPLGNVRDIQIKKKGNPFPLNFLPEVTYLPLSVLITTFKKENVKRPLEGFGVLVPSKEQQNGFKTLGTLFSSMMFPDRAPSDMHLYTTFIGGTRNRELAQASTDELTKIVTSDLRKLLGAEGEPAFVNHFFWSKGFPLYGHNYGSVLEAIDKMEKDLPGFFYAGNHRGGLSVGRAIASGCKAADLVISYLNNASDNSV

[10] = target: T2, Protoporphyrinogen oxidase, chloroplastic (Nicotiana tabacum) (UniProt O24163); experiment: Inhibition of Galium aparine protoporphyrinogen oxidase by post-emergence herbicidal activity assay
T2 sequence (whole entry): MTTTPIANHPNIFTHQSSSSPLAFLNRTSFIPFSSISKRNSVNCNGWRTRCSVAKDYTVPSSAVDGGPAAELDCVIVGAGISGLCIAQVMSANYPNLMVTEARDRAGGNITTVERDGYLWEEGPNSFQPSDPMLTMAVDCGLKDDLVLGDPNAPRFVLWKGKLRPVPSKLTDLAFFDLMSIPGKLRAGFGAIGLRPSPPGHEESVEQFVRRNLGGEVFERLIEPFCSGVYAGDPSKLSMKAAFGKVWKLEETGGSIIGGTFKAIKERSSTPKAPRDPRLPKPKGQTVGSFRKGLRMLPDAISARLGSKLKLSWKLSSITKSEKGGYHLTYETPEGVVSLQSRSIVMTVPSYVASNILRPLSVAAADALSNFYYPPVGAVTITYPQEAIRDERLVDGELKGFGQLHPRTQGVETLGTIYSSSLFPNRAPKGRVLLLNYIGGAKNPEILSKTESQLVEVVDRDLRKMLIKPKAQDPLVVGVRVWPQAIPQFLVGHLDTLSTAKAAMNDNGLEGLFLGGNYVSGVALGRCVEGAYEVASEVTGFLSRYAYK

Veronica hederifolia [11] = experiment: Herbicidal activity against Veronica hederaefolia assessed as killing at 300 g/ha post emergence application measured after 21 days after treatment; format: functional
Veronica hederifolia [12] = experiment: Herbicidal activity against Veronica hederaefolia assessed as killing at 100 g/ha post emergence application measured after 21 days after treatment; format: functional
Veronica hederifolia [13] = experiment: Herbicidal activity against Veronica hederaefolia assessed as killing at 1 g/ha post emergence application measured after 21 days after treatment; format: functional
Viola arvensis [14] = experiment: Herbicidal activity against Viola arvensis assessed as killing at 30 g/ha post emergence application measured after 21 days after treatment; format: functional
Viola arvensis [15] = experiment: Herbicidal activity against Viola arvensis assessed as killing at 10 g/ha pre emergence application measured after 21 days after treatment; format: functional
Viola arvensis [16] = experiment: Herbicidal activity against Viola arvensis assessed as killing at 1 g/ha post emergence application measured after 21 days after treatment; format: functional
Stellaria media [17] = experiment: Herbicidal activity against Stellaria media assessed as killing at 100 g/ha post emergence application measured after 21 days after treatment; format: functional
Stellaria media [18] = experiment: Herbicidal activity against Stellaria media assessed as killing at 10 g/ha pre emergence application measured after 21 days after treatment; format: functional
Galium aparine [19] = experiment: Herbicidal activity against Galium aparine assessed as killing at 100 g/ha post emergence application measured after 21 days after treatment; format: functional
Galium aparine [20] = experiment: Herbicidal activity against Galium aparine assessed as killing at 10 g/ha post emergence application measured after 21 days after treatment; format: functional
Galium aparine [21] = experiment: Herbicidal activity against Galium aparine assessed as killing at 0.3 g/ha post emergence application measured after 21 days after treatment; format: functional
Avena fatua [22] = experiment: Herbicidal activity against Avena fatua assessed as killing at 100 g/ha post emergence application measured after 21 days after treatment; format: functional
Hordeum vulgare [23] = experiment: Phytotoxicity in Hordeum vulgare (barley) assessed as injury at 100 g/ha pre emergence application measured after 21 days after treatment; format: organism-based; settings: in vivo, other, 504 h
Hordeum vulgare [24] = experiment: Phytotoxicity in Hordeum vulgare (barley) assessed as injury at 30 g/ha pre emergence application measured after 21 days after treatment; format: organism-based; settings: in vivo, other, 504 h
Hordeum vulgare [25] = experiment: Phytotoxicity in Hordeum vulgare (barley) assessed as injury at 10 g/ha pre emergence application measured after 21 days after treatment; format: organism-based; settings: in vivo, other, 504 h
Hordeum vulgare [26] = experiment: Phytotoxicity in Hordeum vulgare (barley) assessed as injury at 10 g/ha post emergence application measured after 21 days after treatment; format: organism-based; settings: in vivo, other, 504 h
Triticum aestivum [27] = experiment: Phytotoxicity in Triticum aestivum (wheat) assessed as injury at 300 g/ha pre emergence application measured after 21 days after treatment; format: organism-based; settings: in vivo, other, 504 h

## CCOC(=O)COc1cc(-c2nn(C)c(OC(F)F)c2Cl)c(F)cc1Cl [PYRAFLUFEN-ETHYL]
Triticum aestivum [1]
  Activity: Non-toxic
Triticum aestivum [2]
  Activity: 11%
Triticum aestivum [3]
  Activity: Non-toxic
Avena fatua [4]
  Activity: 1%
Avena fatua [5]
  Activity: inactive
Alopecurus myosuroides [6]
  Activity: inactive
Alopecurus myosuroides [7]
  Activity: 1%
Viola arvensis [8]
  Ratio: 200
[9]
  ED90: 5 gAi/ha
[10]
  ED90: 1.5 gAi/ha
Veronica hederifolia [11]
  Activity: 80%
Veronica hederifolia [12]
  Activity: 21%
Veronica hederifolia [13]
  Activity: 90%
Viola arvensis [14]
  Activity: 40%
Viola arvensis [15]
  Activity: 11%
Viola arvensis [16]
  Activity: 80%
Stellaria media [17]
  Activity: 90%
Stellaria media [18]
  Activity: 21%
Galium aparine [19]
  Activity: 40%
Galium aparine [20]
  Activity: 100%
Galium aparine [21]
  Activity: 60%
Avena fatua [22]
  Activity: 1%
Hordeum vulgare [23]
  Activity: 1%
Hordeum vulgare [24]
  Activity: Non-toxic
Hordeum vulgare [25]
  Activity: Non-toxic
Hordeum vulgare [26]
  Activity: 11%
Triticum aestivum [27]
  Activity: 11%
